Measurements reported in patent US10800792B2, “Inhibitors of Bruton's tyrosine kinase and method of their use” (JANSSEN PHARMACEUTICA NV, priority 2015, dated 2020).

Target: unphosphorylated-BTK kinase domain (UP-BTK), GST-tagged human BTK (389-659aa) (Homo sapiens (Human), UniProt Q06187)
Test: BTK kinase Lanthascreen binding assay
Conditions: Lanthascreen tracer competition, 60 minutes incubation, pIC50 = negative log of the IC50 in molar; for IC50: read-out: BTK_I_binding pIC50 (converted)
Method in brief: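 A fluorescent tracer is bound to unphosphorylated BTK; test compound is added to compete it off; the Lanthascreen signal is read and IC50 is fitted, then reported as its negative log in molar.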

Chain of unphosphorylated-BTK kinase domain (UP-BTK), GST-tagged human BTK (389-659aa) (Q06187 389-659): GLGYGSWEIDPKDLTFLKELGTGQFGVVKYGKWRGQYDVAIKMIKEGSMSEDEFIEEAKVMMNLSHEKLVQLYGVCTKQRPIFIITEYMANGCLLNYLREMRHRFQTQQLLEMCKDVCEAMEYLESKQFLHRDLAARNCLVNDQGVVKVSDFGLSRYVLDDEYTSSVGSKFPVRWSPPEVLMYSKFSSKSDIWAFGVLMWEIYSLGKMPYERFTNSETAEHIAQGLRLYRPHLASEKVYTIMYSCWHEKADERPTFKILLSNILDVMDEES

Row | BTK_I_binding pIC50 | IC50 | Compound
1 | <6 | – | Cc1cnc(-c2ccccc2)cc1N1C(=O)Nc2c(C(=O)N[C@@H]3CCCNC3)sc3nccc1c23 [Example 729, (R)-5-(5-Methyl-2-phenylpyridin-4-yl)-4-oxo-N-(piperidin-3-yl)-4,5-dihydro-3H-1-thia-3,5,8-triazaacenaphthylene-2-carboxamide]
2 | – | > 1 µM | Cc1cc(OCCOC(C)C)ccc1N1C(=O)Nc2c(C(=O)N[C@@H]3CCCNC3)sc3nccc1c23 [Example 730, (R)-5-(4-(2-Isopropoxyethoxy)-2-methylphenyl)-4-oxo-N-(piperidin-3-yl)-4,5-dihydro-3H-1-thia-3,5,8-triazaacenaphthylene-2-carboxamide]
3 | <6 | – | O=C(N[C@@H]1CCCNC1)c1sc2nccc3c2c1NC(=O)N3c1ccnc(C2CCCCC2)c1 [Example 731, (R)-5-(2-Cyclohexylpyridin-4-yl)-4-oxo-N-(piperidin-3-yl)-4,5-dihydro-3H-1-thia-3,5,8-triazaacenaphthylene-2-carboxamide]
4 | <6 | – | C=CC(=O)N1CCC[C@@H](NC(=O)c2sc3nccc4c3c2NC(=O)N4c2ccc(OC(C)C)nc2C)C1 [Example 732, (R)—N-(1-Acryloylpiperidin-3-yl)-5-(6-isopropoxy-2-methylpyridin-3-yl)-4-oxo-4,5-dihydro-3H-1-thia-3,5,8-triazaacenaphthylene-2-carboxamide]
5 | <6 | – | Cc1c(N2C(=O)Nc3c(C(=O)N[C@@H]4CCCNC4)sc4nccc2c34)ccnc1-c1ccccc1 [Example 733, (R)-5-(3-Methyl-2-phenylpyridin-4-yl)-4-oxo-N-(piperidin-3-yl)-4,5-dihydro-3H-1-thia-3,5,8-triazaacenaphthylene-2-carboxamide]
6 | <6 | – | C=CC(=O)N1CCC[C@@H](NC(=O)c2sc3nccc4c3c2NC(=O)N4c2cc(C)nc(-c3ccccc3)c2)C1 [Example 734, (R)—N-(1-Acryloylpiperidin-3-yl)-5-(2-methyl-6-phenylpyridin-4-yl)-4-oxo-4,5-dihydro-3H-1-thia-3,5,8-triazaacenaphthylene-2-carboxamide]
7 | – | > 1 µM | Cc1cc(N2C(=O)Nc3c(C(=O)N[C@@H]4CCCNC4)sc4nccc2c34)cc(-c2ccccc2)n1 [Example 735, (R)-5-(2-Methyl-6-phenylpyridin-4-yl)-4-oxo-N-(piperidin-3-yl)-4,5-dihydro-3H-1-thia-3,5,8-triazaacenaphthylene-2-carboxamide]
8 | <6 | – | O=C(N[C@@H]1CCCNC1)c1sc2nccc3c2c1NC(=O)N3c1cccc(C2CCOCC2)c1 [Example 738, (R)-4-Oxo-N-(piperidin-3-yl)-5-(3-(tetrahydro-2H-pyran-4-yl)phenyl)-4,5-dihydro-3H-1-thia-3,5,8-triazaacenaphthylene-2-carboxamide]
9 | <6 | – | CC(C)(C)OC(=O)N1CCC[C@@H](NC(=O)c2sc3nccc4c3c2NC(=O)N4c2cccc(C3CCOCC3)c2)C1 [Example 739, (R)-tert-Butyl 3-(4-oxo-5-(3-(tetrahydro-2H-pyran-4-yl)phenyl)-4,5-dihydro-3H-1-thia-3,5,8-triazaacenaphthylene-2-carboxamido)piperidine-1-carboxylate]
10 | <6 | – | O=C(N[C@@H]1CCCNC1)c1sc2nccc3c2c1NC(=O)N3c1cnnc(-c2ccccc2)c1 [Example 740, (R)-4-Oxo-5-(6-phenylpyridazin-4-yl)-N-(piperidin-3-yl)-4,5-dihydro-3H-1-thia-3,5,8-triazaacenaphthylene-2-carboxamide]
11 | 5.9 | – | O=C(N[C@@H]1CCNC1)c1sc2nccc3c2c1NC(=O)N3c1ccc(Oc2ccccc2)nc1 [Example 741, (R)-4-Oxo-5-(6-phenoxypyridin-3-yl)-N-(pyrrolidin-3-yl)-4,5-dihydro-3H-1-thia-3,5,8-triazaacenaphthylene-2-carboxamide]
12 | – | 1.58 µM | Cc1nc(Oc2ccccc2)ccc1N1C(=O)Nc2c(C(=O)N[C@@H]3CCCN(C(=O)OC(C)(C)C)C3)sc3nccc1c23 [Example 743, (R)-tert-Butyl 3-(5-(2-methyl-6-phenoxypyridin-3-yl)-4-oxo-4,5-dihydro-3H-1-thia-3,5,8-triazaacenaphthylene-2-carboxamido)piperidine-1-carboxylate]
13 | 6.8 | – | C=CC(=O)N1CC[C@@H](NC(=O)c2sc3nccc4c3c2NC(=O)N4c2cnc(Oc3ccccc3)nc2)C1 [Example 748, (R)—N-(1-Acryloylpyrrolidin-3-yl)-4-oxo-5-(2-phenoxypyrimidin-5-yl)-4,5-dihydro-3H-1-thia-3,5,8-triazaacenaphthylene-2-carboxamide]
14 | 7.3 | – | C=CC(=O)N1CC[C@@H](NC(=O)c2sc3nccc4c3c2NC(=O)N4c2ncc(Oc3ccccc3)cn2)C1 [Example 749, (R)—N-(1-Acryloylpyrrolidin-3-yl)-4-oxo-5-(5-phenoxypyrimidin-2-yl)-4,5-dihydro-3H-1-thia-3,5,8-triazaacenaphthylene-2-carboxamide]
15 | 6.6 | – | C=CC(=O)N1CCC[C@@H](NC(=O)c2sc3nccc4c3c2NC(=O)N4c2ccc(CC(C)C)cc2)C1 [Example 750, (R)—N-(1-Acryloylpiperidin-3-yl)-5-(4-isobutylphenyl)-4-oxo-4,5-dihydro-3H-1-thia-3,5,8-triazaacenaphthylene-2-carboxamide]
16 | 6.7 | – | C=CC(=O)N1CCC[C@@H](NC(=O)c2sc3nccc4c3c2NC(=O)N4c2cc(-c3ccccc3)cnn2)C1 [Example 751, (R)—N-(1-Acryloylpiperidin-3-yl)-4-oxo-5-(5-phenylpyridazin-3-yl)-4,5-dihydro-3H-1-thia-3,5,8-triazaacenaphthylene-2-carboxamide]
17 | <6 | – | CC(C)Cc1ccc(N2C(=O)Nc3c(C(=O)N[C@@H]4CCCNC4)sc4nccc2c34)cc1 [Example 754, (R)-5-(4-Isobutylphenyl)-4-oxo-N-(piperidin-3-yl)-4,5-dihydro-3H-1-thia-3,5,8-triazaacenaphthylene-2-carboxamide]
18 | <6 | – | O=C(N[C@@H]1CCCNC1)c1sc2nccc3c2c1NC(=O)N3c1cc(-c2ccccc2)cnn1 [Example 755, (R)-4-Oxo-5-(5-phenylpyridazin-3-yl)-N-(piperidin-3-yl)-4,5-dihydro-3H-1-thia-3,5,8-triazaacenaphthylene-2-carboxamide]
19 | 6.3 | – | C=CC(=O)N1CCC[C@@H](NC(=O)c2sc3nccc4c3c2NC(=O)N4c2ccc(CC(C)C)nc2C)C1 [Example 764, (R)—N-(1-Acryloylpiperidin-3-yl)-5-(6-isobutyl-2-methylpyridin-3-yl)-4-oxo-4,5-dihydro-3H-1-thia-3,5,8-triazaacenaphthylene-2-carboxamide]
20 | <6 | – | C=CC(=O)N1CCC[C@@H](NC(=O)c2sc3nccc4c3c2NC(=O)N4c2ccc(OC3CCOCC3)nc2C)C1 [Example 770, (R)—N-(1-Acryloylpiperidin-3-yl)-5-(2-methyl-6-((tetrahydro-2H-pyran-4-yl)oxy)pyridin-3-yl)-4-oxo-4,5-dihydro-3H-1-thia-3,5,8-triazaacenaphthylene-2-carboxamide]
21 | 7.4 | – | C=CC(=O)N1CCC[C@@H](NC(=O)c2sc3nccc4c3c2NC(=O)N4c2ccc(Oc3cccnc3C)cc2)C1 [Example 771, (R)—N-(1-Acryloylpiperidin-3-yl)-5-(4-((2-methylpyridin-3-yl)oxy)phenyl)-4-oxo-4,5-dihydro-3H-1-thia-3,5,8-triazaacenaphthylene-2-carboxamide]
22 | 7.7 | – | C=CC(=O)N1CCC[C@@H](NC(=O)c2sc3nccc4c3c2NC(=O)N4c2ccc(Oc3cccc(C)n3)cc2C)C1 [Example 772, (R)—N-(1-Acryloylpiperidin-3-yl)-5-(2-methyl-4-((6-methylpyridin-2-yl)oxy)phenyl)-4-oxo-4,5-dihydro-3H-1-thia-3,5,8-triazaacenaphthylene-2-carboxamide]
23 | 7.4 | – | C=CC(=O)N1CCC[C@@H](NC(=O)c2sc3nccc4c3c2NC(=O)N4c2ccc(Oc3cccnc3C)cc2C)C1 [Example 773, (R)—N-(1-Acryloylpiperidin-3-yl)-5-(2-methyl-4-((2-methylpyridin-3-yl)oxy)phenyl)-4-oxo-4,5-dihydro-3H-1-thia-3,5,8-triazaacenaphthylene-2-carboxamide]
24 | 7.9 | – | C=CC(=O)N1CCC[C@@H](NC(=O)c2sc3nccc4c3c2NC(=O)N4c2ccc(Oc3cccnc3)cc2)C1 [Example 774, (R)—N-(1-Acryloylpiperidin-3-yl)-4-oxo-5-(4-(pyridin-3-yloxy)phenyl)-4,5-dihydro-3H-1-thia-3,5,8-triazaacenaphthylene-2-carboxamide]
25 | 7.5 | – | C=CC(=O)N1CCC[C@@H](NC(=O)c2sc3nccc4c3c2NC(=O)N4c2ccc(Oc3cccc(C)n3)cc2)C1 [Example 775, (R)—N-(1-Acryloylpiperidin-3-yl)-5-(4-((6-methylpyridin-2-yl)oxy)phenyl)-4-oxo-4,5-dihydro-3H-1-thia-3,5,8-triazaacenaphthylene-2-carboxamide]
26 | 8.3 | – | C=CC(=O)N1CCC[C@@H](NC(=O)c2sc3nccc4c3c2NC(=O)N4c2ccc(Oc3ccccc3F)cn2)C1 [Example 777, (R)—N-(1-Acryloylpiperidin-3-yl)-5-(5-(2-fluorophenoxy)pyridin-2-yl)-4-oxo-4,5-dihydro-3H-1-thia-3,5,8-triazaacenaphthylene-2-carboxamide]

Row | Compound | BTK_I_binding pIC50 | IC50
27 | O=C(N[C@@H]1CCCNC1)c1sc2nccc3c2c1NC(=O)N3c1ccc(OC2CCC2)nc1 [Example 744, (R)-5-(6-Cyclobutoxypyridin-3-yl)-4-oxo-N-(piperidin-3-yl)-4,5-dihydro-3H-1-thia-3,5,8-triazaacenaphthylene-2-carboxamide] | 5.7 | –
